test system: normal human melanocytes; assay: Depigmenting activity (reduction of melanin production) in normal human melanocytes in vitro; assay type: cell-based; conditions: 200 μM (max dose tested)

| Compound | % depigmentation at the max dose tested 200 μM (run 2) [%] |
| --- | --- |
| CCOC(=O)CNC(=O)C(OC(C)=O)C1OC[C@@H](OC(C)=O)[C@H](OC(C)=O)[C@H]1O (stereo partly shown) [Compound 19] | 43 |
| CCOC(=O)[C@@H](CO)NC(=O)C(O)[C@@H]1OC[C@@H](O)[C@H](O)C1O (stereo partly shown) [Compound 12] | 28 |

test system: normal human melanocytes; assay: as above; assay type: cell-based; conditions: run 1, 72 hours incubation, optical density (melanin)
Experimental: The measurement of the depigmenting activity (reduction of melanin production) of compounds of formula (I) was performed by assaying normal human melanocytes in vitro as follows.
First, normal human melanocytes are cultured and distributed in wells. After 24 hours, the culture medium was replaced with a medium containing the compounds of formula (I) to be evaluated. The cells were incubated for 72 hours before measuring the final optical density, which measures the amount of melanin produced by the melanocytes. The compounds are tested at 100 μM after calibration.
Various test runs were performed and the results are collated in the following table.

| Compound | % Depigmentation at 100 μM (run 1) [%] |
| --- | --- |
| NC(=O)[C@@H](CO)NC(=O)C(O)[C@@H]1OC[C@@H](O)[C@H](O)C1O (single isomer, unassigned) [Compound 11-dia1] | 28 |
| NC(=O)CNC(=O)C(O)[C@@H]1O[C@H](CO)[C@@H](O)[C@H](O)C1O (stereo partly shown) [Compound 4] | 19 |
| O=C(O)c1ccc(NC(=O)C(O)C2O[C@H](CO)[C@@H](O)[C@H](O)[C@H]2O)cc1O (stereo partly shown) [Compound 1] | 13 |
| NC(=O)C1CCCN1C(=O)C(O)[C@@H]1O[C@H](CO)[C@@H](O)C(O)C1O (stereo partly shown) [Compound 6] | 29 |
| NC(=O)[C@@H](CO)NC(=O)C(O)[C@@H]1O[C@H](CO)[C@@H](O)[C@H](O)C1O (stereo partly shown) [Compound 5] | 31 |
| NC(=O)CNC(=O)C(O)[C@@H]1OC[C@@H](O)[C@H](O)C1O (stereo partly shown) [Compound 10] | 20 |
| NC(=O)CCNC(=O)C(O)[C@@H]1O[C@H](CO)[C@@H](O)[C@H](O)C1O (stereo partly shown) [Compound 7] | 34 |

same assay, conditions: run 2, 72 hours incubation, optical density (melanin)

| Compound | % depigmentation at 100 μM (run 2) [%] |
| --- | --- |
| NC(=O)[C@@H](CO)NC(=O)C(O)[C@@H]1OC[C@@H](O)[C@H](O)C1O (single isomer, unassigned) [Compound 11-dia2] | 32 |
| CCOC(=O)CNC(=O)C(OC(C)=O)C1OC[C@@H](OC(C)=O)[C@H](OC(C)=O)[C@H]1O (stereo partly shown) [Compound 19] | 15 |
| CCOC(=O)[C@@H](CO)NC(=O)C(OC(C)=O)C1OC[C@@H](OC(C)=O)[C@H](OC(C)=O)[C@H]1O (single isomer, unassigned) [Compound 20-dia1] | 23 |
| CCOC(=O)[C@@H](CO)NC(=O)C(O)[C@@H]1OC[C@@H](O)[C@H](O)C1O (stereo partly shown) [Compound 12] | 20 |

Reference: patent publication US11364189B2, “Method for the treatment of keratin materials using amide C-glycoside derivatives, and cosmetic composition containing same” (L'OREAL, priority 2016, dated 2022)
